Where two headings read alike, the source gives them in different places. *1 amine or outer side, *2 acyl side, *3 side chain or, on linkers, in order; H or OH if unused. Where a SMILES comes first, the peptide text is derived from it. Bridges are numbered along the chain shown (N, C = ends). [ ]: non-standard residue; d: D form. The star is where a group is joined. X1 = N=c1ccc2c(-c3ccccc3C(=O)*)c3ccc(N)c(S(=O)(=O)O)c3oc-2c1S(=O)(=O)O; NMeGABA = CN(CCCC(=O)[*:2])[*:1]
Columns and labels:
Kv1.3 channel (K-Kv1.3) = target: T1, Kv1.3 channel (K-Kv1.3) (Homo sapiens, UniProt P22001); details: cited from earlier work
T1 construct: expressed in transfected cells; host or cells: Neuro2a cells; tracer A-HgTx bought from Smartox Biotechnology
T1 sequence (P22001 whole entry): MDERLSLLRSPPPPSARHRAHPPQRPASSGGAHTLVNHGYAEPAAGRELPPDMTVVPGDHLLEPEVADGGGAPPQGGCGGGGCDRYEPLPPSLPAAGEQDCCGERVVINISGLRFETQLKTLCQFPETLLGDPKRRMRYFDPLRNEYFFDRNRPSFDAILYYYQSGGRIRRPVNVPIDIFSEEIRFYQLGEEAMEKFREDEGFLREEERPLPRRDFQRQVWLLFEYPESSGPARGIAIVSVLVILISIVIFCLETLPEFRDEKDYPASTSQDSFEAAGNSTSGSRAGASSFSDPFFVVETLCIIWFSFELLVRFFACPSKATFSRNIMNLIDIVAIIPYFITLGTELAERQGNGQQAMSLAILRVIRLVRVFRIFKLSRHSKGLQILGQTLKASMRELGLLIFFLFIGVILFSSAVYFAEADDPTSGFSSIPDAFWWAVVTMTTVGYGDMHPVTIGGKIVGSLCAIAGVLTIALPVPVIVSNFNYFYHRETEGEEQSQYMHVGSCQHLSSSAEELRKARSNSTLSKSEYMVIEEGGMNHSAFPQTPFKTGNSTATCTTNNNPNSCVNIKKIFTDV
Description: (§1) Previously, labeling of HgTx1 with fluorophores Cy3, Cy5, Alexa 488, Alexa 546, Alexa 594, Alexa 660, and Alexa 680 was performed at the cysteine residue introduced instead of alanine 19 [23].

Kv1.1 channel (K-Kv1.1) [1] = details: cited from earlier work
Description: as §1

[2] = target: T2, human Kv1.2 channel, mKate2-Kv1.2(S371T, N469L) (K-Kv1.2m2) (Homo sapiens, UniProt P16389, N469L/S371T); assay: Binding of fluorescent ligand to K-Kv1.2m2 on living Neuro2a cells (confocal microscopy, Rav titration)
T2 construct: expressed in transfected cells; host or cells: mouse neuroblastoma Neuro2a cells, transient transfection with pmKate2-KCNA2m1m2
T2 sequence (P16389 whole entry S371T/N469L): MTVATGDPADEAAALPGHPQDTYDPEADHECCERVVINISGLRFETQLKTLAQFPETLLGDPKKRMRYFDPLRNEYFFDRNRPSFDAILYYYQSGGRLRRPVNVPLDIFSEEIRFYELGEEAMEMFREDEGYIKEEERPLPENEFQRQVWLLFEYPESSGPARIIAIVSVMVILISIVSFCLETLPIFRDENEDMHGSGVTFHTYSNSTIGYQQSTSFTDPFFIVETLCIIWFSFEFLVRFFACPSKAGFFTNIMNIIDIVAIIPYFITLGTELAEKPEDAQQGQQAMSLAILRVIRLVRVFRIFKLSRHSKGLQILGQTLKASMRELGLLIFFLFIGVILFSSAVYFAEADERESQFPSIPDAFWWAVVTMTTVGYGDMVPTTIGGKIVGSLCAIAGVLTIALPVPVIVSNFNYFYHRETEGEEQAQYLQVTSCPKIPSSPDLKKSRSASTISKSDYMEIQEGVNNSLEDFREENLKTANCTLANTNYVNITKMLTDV
Description: (§2) Cellular organelles were stained as described earlier. To analyze the binding of Kv1.2 with fluorescent ligands, A-HgTx (0.06–2 nM) or HgTx-G (0.06–0.5 nM) was added to cells in a complete medium for 90–120 min. To analyze competitive binding, HgTx-G (0.5 nM) was added to cells together with the studied peptide (0.1–0.8 nM HgTx1; 0.05–0.8 nM MgTx; 5–20 nM ChTx; 50–400 nM AgTx2; 0.05–0.2 nM Ce1; 0.2–5 nM Ce4) in a complete medium for 90–120 min.
(§3) Microscopy was carried out using an SP2 confocal microscope with an HCX PL APO 63×/1.2 objective (Leica Microsystems GmbH, Wetzlar, Germany). The size of the confocal diaphragm corresponded to 1 Airy disk. Typical voxel size was 0.06 × 0.06 × 0.9 µm except for serial ligand binding experiments, where its size was 0.23 × 0.23 × 0.9 µm. […]
(§4) Quantitative analysis of the interaction of fluorescent ligands with Kv1.2 was carried out using Image J software (version 1.48, National Institute of Health, Bethesda, MD, USA) as described earlier. This analysis was based on calculating the ratio of the fluorescent intensities of the bound ligand to the channel (Ri) in each selected region of interest on the plasma membrane for the confocal images of 20–25 measured cells, followed by calculating the average value (Rav) and standard deviation. […]

[3] = target: T3, human Kv1.2 channel, mKate2-Kv1.2(S371T) (K-Kv1.2) (Homo sapiens, UniProt P16389, S371T); assay: Binding of fluorescent ligands to K-Kv1.2 on living Neuro2a cells (confocal microscopy, Rav titration); details: concentration dependence of binding
T3 construct: expressed in transfected cells; host or cells: mouse neuroblastoma Neuro2a cells, transient transfection with pmKate2-KCNA2m1
T3 sequence (P16389 whole entry S371T): as the sequence (P16389 whole entry S371T/N469L) above, with L469N counted along it
Description: as §2, §3, §4

Kv1.1 channel (K-Kv1.1) [4] = details: similar analytical system, read-out: Kap, Kv1.1; cited from earlier work
From the text: Table 2 Sequences of Ce1, Ce4, HgTx1, and MgTx peptides and dissociation constants (Kap, nM) of their complexes with Kv1.2, Kv1.1, and Kv1.3 channels. | column: Kap, nM

human Kv1.2 channels = details: patch-clamp, mammalian cells; read-out: 50% decrease of current, human Kv1.2; cited from earlier work
From the text: (§5) Kap of MgTx in our experiments is consistent with the last value.

Kv1.2 channels = details: mammalian cells with depolarized membranes; read-out: 50% inhibition of the Rb+ flux through Kv1.2; cited from earlier work
From the text: as §5

[5] = target: T4, human Kv1.2 channel (K-Kv1.2) (Homo sapiens, UniProt P16389, S371T); assay: Competitive displacement of HgTx-G from complexes with K-Kv1.2 on Neuro2a cells; assay type: binding; details: displacement of HgTx-G (0.5 nM), 90-120 min, Cheng-Prusoff, triplicate, mean ± SD, read-out: apparent dissociation constant (Kap), Kv1.2
T4 construct: expressed in transfected cells; host or cells: mouse neuroblastoma Neuro2a cells, transient transfection with pmKate2-KCNA2m1; tracer HgTx-G made in E. coli Rosetta-gami(DE3)pLysS
T4 sequence (P16389 whole entry S371T): as the sequence (P16389 whole entry S371T/N469L) above, with L469N counted along it
Description: as §2
Quantitative analysis of the interaction of fluorescent ligands with Kv1.2 was carried out using Image J software (version 1.48, National Institute of Health, Bethesda, MD, USA) as described earlier. This analysis was based on calculating the ratio of the fluorescent intensities of the bound ligand to the channel (Ri) in each selected region of interest on the plasma membrane for the confocal images of 20–25 measured cells, followed by calculating the average value (Rav) and standard deviation.
The peptide concentration (DC50) displacing 50% of the fluorescent ligand from the complex with Kv1.2 was estimated by the dependence of Rav on the concentration (C) of the added peptide at the fixed concentration of the fluorescent ligand:Rav(C)/Rav0 = 1/(1 + C/DC50)(2) […]
The apparent dissociation constant (Kap) of the complex between Kv1.2 and the studied peptide was calculated using the Cheng–Prusoff equation:Kap = DC50/(1 + L/Kd)(3) […]

CC[C@H](C)[C@@H]1NC(=O)CNC(=O)[C@H](Cc2ccccc2)NC(=O)[C@H](CCC(N)=O)NC(=O)[C@H](C)NC(=O)[C@H](CCCCN)NC(=O)[C@@H]2CSSC[C@@H](C(=O)N[C@@H](Cc3ccc(O)cc3)C(=O)N3CCC[C@H]3C(=O)N[C@@H](Cc3c[nH]cn3)C(=O)O)NC(=O)[C@H](CCCCN)NC(=O)[C@@H]3CSSC[C@H](NC(=O)[C@H](CCC(N)=O)NC(=O)[C@H](CCCCN)NC(=O)[C@@H]4CCCN4C(=O)[C@H](CO)NC(=O)[C@H]([C@@H](C)O)NC(=O)[C@@H](NC(=O)[C@H](CCCCN)NC(=O)[C@@H](NC(=O)[C@H](CC(=O)O)NC(=O)[C@@H](NC(=O)[C@@H](NC(=O)[C@@H](NC(=O)CCCN(C)C(=O)c4ccccc4-c4c5ccc(=N)c(S(=O)(=O)O)c-5oc5c(S(=O)(=O)O)c(N)ccc45)[C@@H](C)O)C(C)C)[C@@H](C)CC)C(C)C)CSSC[C@H](NC(=O)[C@H](CCCCN)NC(=O)[C@H](C)NC(=O)CNC(=O)[C@H](C)NC(=O)[C@H](CCCNC(=N)N)NC1=O)C(=O)N[C@@H](CCSC)C(=O)N[C@@H](CC(N)=O)C(=O)NCC(=O)N[C@@H](CCCCN)C(=O)N3)C(=O)N[C@@H](CC(C)C)C(=O)N1CCC[C@H]1C(=O)N1CCC[C@H]1C(=O)N2 [A-HgTx] (X1-[NMeGABA]TVIDVKCTSPKQCLPPCKAQFGIRAGAKCMNGKCKCYPH-OH; disulfide 8-30, 14-35, 18-37; C-terminus assumed)
Kd (Kv1.3 channel (K-Kv1.3)): 0.3 ± 0.13 nM
Kd (Kv1.1 channel (K-Kv1.1) [1]): 0.7 ± 0.2 nM
binding saturation concentration, K-Kv1.2m2 ([2]; concentration dependence of binding, Neuro2a cells): ~ 0.5 nM
Kd ([2]; living Neuro2a cells, complete medium, confocal microscopy, triplicate, mean ± SD, SD, read-out: dissociation constant (Kd) of the complex with K-Kv1.2m2): 0.08 ± 0.02 nM
binding saturation concentration, K-Kv1.2 [3]: ~ 0.5 nM

CC[C@H](C)[C@H](NC(=O)[C@@H](N)[C@@H](C)O)C(=O)N[C@H](C(=O)N[C@@H](CC(N)=O)C(=O)N[C@H](C(=O)N[C@@H](CCCCN)C(=O)N[C@H]1CSSC[C@@H]2NC(=O)[C@H](CCCCN)NC(=O)[C@H](C)NC(=O)CNC(=O)[C@H](C)NC(=O)[C@H](CO)NC(=O)[C@H](CCC(N)=O)NC(=O)CNC(=O)[C@H](Cc3ccccc3)NC(=O)[C@H](CCC(N)=O)NC(=O)[C@H](C)NC(=O)[C@H](CCCCN)NC(=O)[C@@H]3CSSC[C@@H](C(=O)N[C@@H](Cc4ccc(O)cc4)C(=O)N4CCC[C@H]4C(=O)N[C@@H](Cc4c[nH]cn4)C(=O)O)NC(=O)[C@H](CCCCN)NC(=O)[C@H](CSSC[C@H](NC(=O)[C@H](CCC(N)=O)NC(=O)[C@H](CCCCN)NC(=O)[C@@H]4CCCN4C(=O)[C@H](CO)NC(=O)[C@H]([C@@H](C)O)NC1=O)C(=O)N[C@@H](CC(C)C)C(=O)N1CCC[C@H]1C(=O)N1CCC[C@H]1C(=O)N3)NC(=O)[C@H](CCCCN)NC(=O)CNC(=O)[C@H](CC(N)=O)NC(=O)[C@H](CCSC)NC2=O)C(C)C)[C@@H](C)CC [MgTx, margatoxin] (H-TIINVKCTSPKQCLPPCKAQFGQSAGAKCMNGKCKCYPH-OH; disulfide 7-29, 13-34, 17-36 (inferred); N-terminus and C-terminus assumed)
Kd (Kv1.1 channel (K-Kv1.1) [4]): 0.3 ± 0.2 nM
IC50 (human Kv1.2 channels): 0.006 nM
IC50 (Kv1.2 channels): 0.675 nM

CC[C@H](C)[C@@H]1NC(=O)[C@@H]2CSSC[C@@H]3NC(=O)[C@H](CCCCN)NC(=O)[C@H](CCCNC(=N)N)NC(=O)[C@H](CC(N)=O)NC(=O)[C@H](CCSC)NC(=O)[C@H](CSSC[C@H](NC(=O)[C@H](CO)NC(=O)[C@@H](NC(=O)[C@H](CC(N)=O)NC(=O)[C@@H](NC(=O)[C@@H]4CCCN4C(=O)[C@@H](NC(=O)CN)C(C)C)[C@@H](C)CC)C(C)C)C(=O)N[C@@H]([C@@H](C)O)C(=O)NCC(=O)N[C@@H](CO)C(=O)N4CCC[C@H]4C(=O)N[C@@H](CCC(N)=O)C(=O)N2)NC(=O)[C@H](CCCCN)NC(=O)CNC(=O)[C@H](Cc2ccccc2)NC(=O)[C@H](CCCNC(=N)N)NC(=O)[C@H](CCSC)NC(=O)CNC(=O)[C@H](C)NC(=O)[C@H](CC(=O)O)NC(=O)[C@H](CCCCN)NC(=O)[C@H](CSSC[C@@H](C(=O)N[C@H](C(=O)N2CCC[C@H]2C(=O)N[C@@H](CCCCN)C(=O)O)[C@@H](C)O)NC(=O)[C@H](Cc2c[nH]cn2)NC3=O)NC(=O)[C@@H]2CCCN2C(=O)[C@H](CCCCN)NC1=O [AgTx2]
Kd [5]: 21.5 ± 1.2 nM

Reference: publication PMC11674118, “New High-Affinity Peptide Ligands for Kv1.2 Channel: Selective Blockers and Fluorescent Probes” (Cells, 2024)
